Experimental findings from US8685981B2, “Cyclic compound having hetero atom” (Daiichi Sankyo Company, Limited, priority 2009, dated 2014) are described below.

The test system of the experiment is ST2 cells, murine bone marrow-derived stromal cells. Kind of experiment: Osteoblast differentiation test (alkaline phosphatase activity). Type of experiment: cell-based. The note with it: Mus musculus, ST-2, 96 h, at 0.03 μg/mL, four days of culturing, control group (0.1% DMSO) set at 100%, read-out: increase (%) in alkaline phosphatase activity. How it is done:
ST2 cells, murine bone marrow-derived stromal cells, (obtained from RIKEN) were used.
In this test, α-MEM media (obtained from GIBCO BRL Cat. No. 10370-021) containing 10% (v/v) of inactivated calf serum (obtained from Hyclone Laboratories, Inc.) and 1% (v/v) of Penicillin-Streptomycin Liquid (obtained from GIBCO BRL Cat. No. 15140-122) (hereinbelow, abbreviated as 10%-FBS-αMEM) were used. In this test, all culturing was performed in a CO2 incubator (37° C., 95% humidity, 5% CO2).
The aforementioned cells were detached with 2 mL of a 0.25% trypsin solution (obtained from GIBCO BRL Cat. No. 15050-065) and dispersed in 10 mL of 10%-FBS-αMEM. Subsequently, the cells were collected by centrifugation (25° C., 800 rpm, five minutes). Then, a cell suspension containing 40000 of the cells/mL of 10%-FBS-αMEM was prepared. The cell suspension was then dispensed into 96-well plates (the product of Falcon), 100 μL per well, at a density of 4000 cells/well, followed by culturing for 24 hours. To the wells except for the below-described well containing a control group, the compound was dispensed at final concentrations of 0.01, 0.03, 0.1, and 0.3 μg/ml. To the well of a control group, DMSO was dispensed at a final concentration of 0.1% (v/v). After four days of culturing, the activity of alkaline phosphatase (ALP) was measured in each group.
The measurement of ALP activity was performed as follows. That is, the medium in each well of the culture plates was completely removed. Each well was then washed by dispensing 100 μL of Dulbecco's phosphate buffer (obtained from GIBCO BRL Cat. No. 14190-144) and then removing it. A cell lysate solution containing 10 mM MgCl2 and 2% (v/v) TritonX-100 (Sigma) was prepared and dispensed at 50 μL/well, followed by stirring at room temperature for five minutes. An ALP substrate solution containing 50 mM diethanolamine (Wako pure chemical industries, Ltd., Cat. No. 099-03112) and 20 mM p-nitrophenyl phosphate (Wako pure chemical industries, Ltd., Cat. No. 147-02343) was prepared and dispensed at 50 μL/well, and the plates were left to stand at room temperature for 10 minutes. Subsequently, absorbance was measured by a microplate reader (Bio-Rad Laboratories, Inc.). Setting the measurement value of the control group of each plate at 100%, the increase (%) in alkaline phosphatase activity in the test compound-addition group was calculated, which was assessed as the degree of osteoblast differentiation.

Structures are written as SMILES. Where only a bound is given, the exact number is not on record here.

Turning to `COCCOC1CCN(c2cncc3ccc(C(N)=O)nc23)CC1` [Example 1, 8-[4-(2-Methoxyethoxy)piperidin-1-yl]-1,6-naphthyridine-2-carboxamide], the activity at 0.03 µg/mL was no less than 200%.

Take `NC(=O)c1ccc2cncc(N3CCC(OCCOC4CCOCC4)CC3)c2n1` [Example 6, 8-{4-[2-(Tetrahydro-2H-pyran-4-yloxy)ethoxy]piperidin-1-yl}-1,6-naphthyridine-2-carboxamide]: the activity at 0.03 µg/mL was no less than 200%.

Consider `NC(=O)c1ccc2cncc(N3CCC(COC4CCCCO4)CC3)c2c1` (stereo not shown) [Example 52], for which the activity at 0.03 µg/mL is no less than 200%.

In the case of `NC(=O)c1ccc2cncc(N3CCCCC3)c2c1` [Example 16, 4-(Piperidin-1-yl)isoquinoline-6-carboxamide], the activity at 0.03 µg/mL is no less than 200%.

On to `NC(=O)c1ccc2cncc(N3CCN(c4ccccc4)CC3)c2n1` [Example 28], for which the activity at 0.03 µg/mL was no less than 200%.

On to `NC(=O)c1ccc2cncc(N3CCC(c4ccccc4)CC3)c2c1` [Example 42], for which the activity at 0.03 µg/mL is no less than 200%.

As for `CCN(C)C(=O)COC1CCN(c2cncc3ccc(C(N)=O)nc23)CC1` [Example 116], the activity at 0.03 µg/mL was no less than 200%.

On to `NC(=O)c1ccc2cncc(N3CCN(C(=O)N4CCCC4)CC3)c2n1` [Example 114], for which the activity at 0.03 µg/mL was no less than 200%.

Regarding `NC(=O)c1ccc2cncc(N3CCC(OCC4CCCO4)CC3)c2c1` (stereo not shown) [Example 68], the activity at 0.03 µg/mL is no less than 200%.

Consider `NC(=O)c1ccc2cncc(N3CCN(c4nccs4)CC3)c2c1` [Example 18, 4-[4-(1,3-Thiazol-2-yl)piperazin-1-yl]isoquinoline-6-carboxamide], for which the activity at 0.03 µg/mL is no less than 200%.

On to `CN(C)C(=O)N1CCN(c2cncc3ccc(C(N)=O)nc23)CC1` [Example 10, 8-[4-(Dimethylcarbamoyl)piperazin-1-yl]-1,6-naphthyridine-2-carboxamide], for which the activity at 0.03 µg/mL was no less than 200%.

With `COCC1CCCN(c2cncc3ccc(C(N)=O)cc23)C1` (stereo not shown) [Example 17, 4-[3-(Methoxymethyl)piperidin-1-yl]isoquinoline-6-carboxamide], the activity at 0.03 µg/mL is no less than 200%.

For `CN(C)C(=O)C1CCN(c2cncc3ccc(C(N)=O)cc23)CC1` [Example 74], the activity at 0.03 µg/mL is no less than 200%.

As to `COCC1CN(c2cncc3ccc(C(N)=O)cc23)CCO1` (stereo not shown) [Example 105], the activity at 0.03 µg/mL is no less than 200%.

Regarding `NC(=O)c1ccc2cncc(N3CCC(OCC(=O)N4CCOCC4)CC3)c2n1` [Example 100], the activity at 0.03 µg/mL is no less than 200%.

For `NC(=O)c1ccc2cncc(N3CC=C(c4ccccc4)CC3)c2c1` [Example 24, 4-(4-Phenyl-3,6-dihydropyridine-1(2H)-yl)isoquinoline-6-carboxamide], the activity at 0.03 µg/mL was no less than 200%.

As for `COCC1CCN(c2cncc3ccc(C(N)=O)cc23)CC1` [Example 37], the activity at 0.03 µg/mL was no less than 200%.

On to `NC(=O)c1ccc2cncc(N3CCC(CCOC4CCOCC4)CC3)c2c1` [Example 71], for which the activity at 0.03 µg/mL was no less than 200%.

Regarding `NC(=O)c1ccc2cncc(N3CCC(OCCOCC4CCOC4)CC3)c2n1` (stereo not shown) [Example 5, 8-{4-[2-(Tetrahydrofuran-3-ylmethoxy)ethoxy]piperidin-1-yl}-1,6-naphthyridine-2-carboxamide], the activity at 0.03 µg/mL is no less than 200%.

Turning to `NC(=O)c1ccc2cncc(N3CCC(F)(F)CC3)c2c1` [Example 43], the activity at 0.03 µg/mL was no less than 200%.

Regarding `CCOC1CCCN(c2cncc3ccc(C(N)=O)cc23)C1` (stereo not shown) [Example 38], the activity at 0.03 µg/mL was no less than 200%.

In the case of `NC(=O)c1ccc2cncc(N3CC[C@@H]4CCCC[C@H]4C3)c2c1` [Example 67], the activity at 0.03 µg/mL is no less than 200%.

For `NC(=O)c1ccc2cncc(N3CCCC(COC(F)F)C3)c2c1` (stereo not shown) [Example 103], the activity at 0.03 µg/mL was no less than 200%.

Turning to `CN(C)C(=O)COC1CCN(c2cncc3ccc(C(N)=O)cc23)CC1` [Example 94], the activity at 0.03 µg/mL is no less than 200%.

With `NC(=O)c1ccc2cncc(N3CCC(O)CC3)c2c1` [Example 89], the activity at 0.03 µg/mL was no less than 200%.

`NC(=O)c1ccc2cncc(N3CCCC(CO)C3)c2c1` (stereo not shown) [Example 56]: the activity at 0.03 µg/mL is no less than 200%.

In the case of `NC(=O)c1ccc2cncc(N3CCC(F)CC3)c2c1` [Example 45], the activity at 0.03 µg/mL was no less than 200%.

In the case of `Cc1ccc(N2CCN(c3cncc4ccc(C(N)=O)cc34)CC2)cc1` [Example 61], the activity at 0.03 µg/mL was no less than 200%.

With `NC(=O)c1ccc2cncc(N3CCC(Oc4ccccc4)CC3)c2c1` [Example 64], the activity at 0.03 µg/mL was no less than 200%.

Consider `CN(CCOC1CCN(c2cncc3ccc(C(N)=O)cc23)CC1)S(C)(=O)=O` [Example 102], for which the activity at 0.03 µg/mL is no less than 200%.

Turning to `NC(=O)c1ccc2cncc(N3CCOCC3)c2c1` [Example 35], the activity at 0.03 µg/mL is no less than 200%.

Regarding `CC(C)OCCOC1CCN(c2cncc3ccc(C(N)=O)nc23)CC1` [Example 111], the activity at 0.03 µg/mL is no less than 200%.

Regarding `NC(=O)c1ccc2cncc(N3CCC(OC4CCCCO4)CC3)c2c1` (stereo not shown) [Example 75], the activity at 0.03 µg/mL is no less than 200%.

As for `NC(=O)c1ccc2cncc(N3CCC(O)(c4ccccc4)CC3)c2c1` [Example 23, 4-(4-Hydroxy-4-phenylpiperidin-1-yl)isoquinoline-6-carboxamide], the activity at 0.03 µg/mL is no less than 200%.

In the case of `COCC1CCN(c2cncc3ccc(C(N)=O)cc23)C1` (stereo not shown) [Example 73], the activity at 0.03 µg/mL was no less than 200%.

As for `NC(=O)c1ccc2cncc(N3CCN(c4cccc(F)c4)CC3)c2n1` [Example 32], the activity at 0.03 µg/mL was no less than 200%.

As for `NC(=O)c1ccc2cncc(N3CCC(OCCOC4CCCCO4)CC3)c2c1` (stereo not shown) [Example 19, 4-{4-[2-(Tetrahydro-2H-pyran-2-yloxy)ethoxy]piperidin-1-yl}isoquinoline-6-carboxamide], the activity at 0.03 µg/mL was no less than 200%.

Turning to `CC1CCN(c2cncc3ccc(C(N)=O)cc23)C1` (stereo not shown) [Example 72], the activity at 0.03 µg/mL is no less than 200%.

In the case of `NC(=O)c1ccc2cncc(N3CCC(OCCOC4CCOC4)CC3)c2n1` (stereo not shown) [Example 117], the activity at 0.03 µg/mL is no less than 200%.

Regarding `COCC1CN(c2cncc3ccc(C(N)=O)nc23)CCC1OC` (stereo not shown) [Example 108], the activity at 0.03 µg/mL is no less than 200%.

For `CN(CCOC1CCN(c2cncc3ccc(C(N)=O)nc23)CC1)S(C)(=O)=O` [Example 9, 8-(4-{2-[Methyl(methylsulfonyl)amino]ethoxy}piperidin-1-yl)-1,6-naphthyridine-2-carboxamide], the activity at 0.03 µg/mL is no less than 200%.

Turning to `COCC1CCN(c2cncc3ccc(C(N)=O)nc23)CC1` [Example 112], the activity at 0.03 µg/mL was no less than 200%.

Turning to `NC(=O)c1ccc2cncc(N3CCC(OCCOC4CC4)CC3)c2c1` [Example 87], the activity at 0.03 µg/mL was no less than 200%.

`CC(C)(O)C1CCN(c2cncc3ccc(C(N)=O)cc23)CC1` [Example 69]: the activity at 0.03 µg/mL is no less than 200%.

Consider `NC(=O)c1ccc2cncc(N3CCc4ccccc4C3)c2c1` [Example 59], for which the activity at 0.03 µg/mL was no less than 200%.

Regarding `NC(=O)c1ccc2cncc(N3CCC(OCCOCCO)CC3)c2c1` [Example 85], the activity at 0.03 µg/mL is no less than 200%.

On to `NC(=O)c1ccc2cncc(N3CCN(c4cccc(F)c4)CC3)c2c1` [Example 60], for which the activity at 0.03 µg/mL was no less than 200%.

As for `NC(=O)c1ccc2cncc(-n3cccc3)c2c1` [Example 34], the activity at 0.03 µg/mL is no less than 200%.

Turning to `NC(=O)c1ccc2cncc(N3CCC(OCC(=O)N4CCCC4)CC3)c2n1` [Example 113], the activity at 0.03 µg/mL is no less than 200%.

For the compound `CCOCCOC1CCN(c2cncc3ccc(C(N)=O)nc23)CC1` [Example 2, 8-[4-(2-Ethoxyethoxy)piperidin-1-yl]-1,6-naphthyridine-2-carboxamide], the activity at 0.03 µg/mL was no less than 200%.

Regarding `CC1CCN(c2cncc3ccc(C(N)=O)cc23)CC1` [Example 47], the activity at 0.03 µg/mL was no less than 200%.

For the compound `CN(C)C(=O)COC1CCN(c2cncc3ccc(C(N)=O)nc23)CC1` [Example 8, 8-{4-[2-(Dimethylamino)-2-oxoethoxy]piperidin-1-yl}-1,6-naphthyridine-2-carboxamide], the activity at 0.03 µg/mL is no less than 200%.

`COC[C@H]1CCCN(c2cncc3ccc(C(N)=O)cc23)C1` [Example 39]: the activity at 0.03 µg/mL was no less than 200%.

For `NC(=O)c1ccc2cncc(N3CCCC3)c2c1` [Example 36], the activity at 0.03 µg/mL is no less than 200%.

Take `CN(C)C(=O)N1CCN(c2cncc3ccc(C(N)=O)cc23)CC1` [Example 99]: the activity at 0.03 µg/mL is no less than 200%.
